Measured values: patent US6355799B1, “Substituted benzene compounds, process for their preparation, and herbicidal and defoliant compositions containing them” (ISK Americas Incorporated, priority 1997, dated 2002)

What was measured:
Format in all cases: in vivo
[1] = tested on: redroot pigweed (Amaranthus retroflexus, AMARE); test: Pre-emerge test, greenhouse herbicide activity screening; settings: phytotoxicity rating 0-100, 14 days after application
Procedure, shortened: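 Sandy loam pots; pre-emerge: sown 1 d pre-spray, surface-watered after, then bottom-watered. Post-emerge: sown 8–21 d before, 2–3 leaf stage, + 0.25% v/v NIS, bottom-watered. Acetone, 187 l/ha track spray, 15–1000 g ai/ha. 0–100 injury score, day 14.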

[2] = tested on: barnyardgrass (Echinochloa crus-galli, ECHCG); test: as above; settings: phytotoxicity rating 0-100, 14 days after application
Procedure, shortened: (§1)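 Herbicidal damage is scored 0 (none) to 100 (complete plant death) two weeks after a simulated field spray. Rates span 15–1000 g ai/ha, delivered in acetone at 187 l/ha. For post-emergence treatments, plants have 2–3 leaves and the spray carries 0.25% v/v non-ionic surfactant.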

[3] = tested on: green foxtail (Setaria viridis, SETVI); test: as above; settings: phytotoxicity rating 0-100, 14 days after application
Procedure, shortened: as §1

[4] = tested on: ivyleaf morningglory (Ipomoea hederacea, IPOHE); test: as above; settings: phytotoxicity rating 0-100, 14 days after application
Procedure, shortened: as §1

[5] = tested on: johnsongrass (Sorghum halepense, SORHA); test: as above; settings: phytotoxicity rating 0-100, 14 days after application
Procedure, shortened: as §1

[6] = tested on: lambsquarters (Chenopodium album, CHEAL); test: as above; settings: phytotoxicity rating 0-100, 14 days after application
Procedure, shortened: as §1

[7] = tested on: large crabgrass (Digitaria sanguinalis, DIGSA); test: as above; settings: phytotoxicity rating 0-100, 14 days after application
Procedure, shortened: as §1

[8] = tested on: sicklepod (Cassia obtusifolia, CASOB); test: as above; settings: phytotoxicity rating 0-100, 14 days after application
Procedure, shortened: as §1

[9] = tested on: velvetleaf (Abutilon theophrasti, ABUTH); test: as above; settings: phytotoxicity rating 0-100, 14 days after application
Procedure, shortened: as §1

[10] = tested on: field corn (Zea mays L., var. Dekalb 535, CORN); test: Pre-emerge test, crop safety; settings: crop damage rating 0-100, 14 days after application
Procedure, shortened: as §1

[11] = tested on: upland rice (Oryza sp., var. Tebonnet, RICE); test: Pre-emerge test, crop safety; settings: crop damage rating 0-100, 14 days after application
Procedure, shortened: as §1

[12] = tested on: barnyardgrass (Echinochloa crus-galli, ECHCG); test: Post-emerge test, greenhouse herbicide activity screening; settings: post-emerge, 14 days after application, rating scale 0-100
Procedure, shortened: (§2)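 Visual ratings on a 0-100 scale (0 no damage, 100 all plants dead) were taken at 14 days after treatment. Rates of 15-1000 g ai/ha in acetone, 187 l/ha, were sprayed onto soil one day after planting (pre-emerge) or onto 2-3 leaf plants with 0.25% v/v surfactant (post-emerge).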

[13] = tested on: green foxtail (Setaria viridis, SETVI); test: as above; settings: post-emerge, 14 days after application, rating scale 0-100
Procedure, shortened: as §2

[14] = tested on: ivyleaf morningglory (Ipomoea hederacea, IPOHE); test: as above; settings: post-emerge, 14 days after application, rating scale 0-100
Procedure, shortened: as §2

[15] = tested on: johnsongrass (Sorghum halepense, SORHA); test: as above; settings: post-emerge, 14 days after application, rating scale 0-100
Procedure, shortened: as §2

[16] = tested on: lambsquarters (Chenopodium album, CHEAL); test: as above; settings: post-emerge, 14 days after application, rating scale 0-100
Procedure, shortened: as §2

[17] = tested on: large crabgrass (Digitaria sanguinalis, DIGSA); test: as above; settings: post-emerge, 14 days after application, rating scale 0-100
Procedure, shortened: as §2

[18] = tested on: redroot pigweed (Amaranthus retroflexus, AMARE); test: as above; settings: post-emerge, 14 days after application, rating scale 0-100
Procedure, shortened: as §2

[19] = tested on: sicklepod (Cassia obtusifolia, CASOB); test: as above; settings: post-emerge, 14 days after application, rating scale 0-100
Procedure, shortened: as §2

[20] = tested on: velvetleaf (Abutilon theophrasti, ABUTH); test: as above; settings: post-emerge, 14 days after application, rating scale 0-100
Procedure, shortened: as §2

[21] = tested on: field corn (Zea mays L., var. Dekalb 535, CORN); test: Post-emerge test, crop safety; settings: post-emerge, 14 days after application, rating scale 0-100
Procedure, shortened: as §1

[22] = tested on: upland rice (Oryza sp., var. Tebonnet, RICE); test: Post-emerge test, crop safety; settings: post-emerge, 14 days after application, rating scale 0-100
Procedure, shortened: as §1

CCOC(=O)COc1c(Cl)cc(F)c(-n2c(=O)cc(C(F)(F)F)n(C)c2=O)c1NC(=O)C=Cc1ccccc1 [2-190]
0: Pre-emerge Herbicidal Activity ECHCG ([2]; 63 g ai/ha) | Pre-emerge Herbicidal Activity ECHCG ([2]; 250 g ai/ha) | Pre-emerge Herbicidal Activity SETVI ([3]; 63 g ai/ha) | Pre-emerge Herbicidal Activity IPOHE ([4]; 63 g ai/ha) | Pre-emerge Herbicidal Activity SORHA ([5]; 63 g ai/ha) | Pre-emerge Herbicidal Activity SORHA ([5]; 250 g ai/ha) | Pre-emerge Herbicidal Activity DIGSA ([7]; 63 g ai/ha) | Pre-emerge Herbicidal Activity CORN ([10]; 63 g ai/ha) | Pre-emerge Herbicidal Activity CORN ([10]; 250 g ai/ha) | ECHCG phytotoxicity rating ([12]; 63 g ai/ha) | SETVI phytotoxicity rating ([13]; 63 g ai/ha) | phytotoxicity rating SETVI ([13]; 250 g ai/ha) | SORHA phytotoxicity rating ([15]; 63 g ai/ha) | DIGSA phytotoxicity rating ([17]; 63 g ai/ha) | phytotoxicity rating DIGSA ([17]; 250 g ai/ha) | RICE phytotoxicity rating (crop damage) ([22]; 63 g ai/ha)
99: phytotoxicity rating AMARE ([18]; 250 g ai/ha)
70: Pre-emerge Herbicidal Activity CASOB ([8]; 250 g ai/ha)
50: IPOHE phytotoxicity rating ([14]; 63 g ai/ha) | phytotoxicity rating SORHA ([15]; 250 g ai/ha)
80: phytotoxicity rating CASOB ([19]; 250 g ai/ha)
5: CORN phytotoxicity rating (crop damage) ([21]; 63 g ai/ha) | phytotoxicity rating RICE (crop damage) ([22]; 250 g ai/ha)
95: Pre-emerge Herbicidal Activity AMARE ([1]; 63 g ai/ha) | AMARE phytotoxicity rating ([18]; 63 g ai/ha)
90: Pre-emerge Herbicidal Activity IPOHE ([4]; 250 g ai/ha) | phytotoxicity rating IPOHE ([14]; 250 g ai/ha) | CHEAL phytotoxicity rating ([16]; 63 g ai/ha) | ABUTH phytotoxicity rating ([20]; 63 g ai/ha) | phytotoxicity rating ABUTH ([20]; 250 g ai/ha)
100: Pre-emerge Herbicidal Activity AMARE ([1]; 250 g ai/ha) | Pre-emerge Herbicidal Activity CHEAL ([6]; 63 g ai/ha) | Pre-emerge Herbicidal Activity CHEAL ([6]; 250 g ai/ha) | Pre-emerge Herbicidal Activity ABUTH ([9]; 63 g ai/ha) | Pre-emerge Herbicidal Activity ABUTH ([9]; 250 g ai/ha) | phytotoxicity rating CHEAL ([16]; 250 g ai/ha)
30: Pre-emerge Herbicidal Activity SETVI ([3]; 250 g ai/ha) | Pre-emerge Herbicidal Activity DIGSA ([7]; 250 g ai/ha) | Pre-emerge Herbicidal Activity CASOB ([8]; 63 g ai/ha)
20: Pre-emerge Herbicidal Activity RICE ([11]; 250 g ai/ha) | CASOB phytotoxicity rating ([19]; 63 g ai/ha)
10: Pre-emerge Herbicidal Activity RICE ([11]; 63 g ai/ha) | phytotoxicity rating ECHCG ([12]; 250 g ai/ha) | phytotoxicity rating CORN (crop damage) ([21]; 250 g ai/ha)
